Test results from US5276049A, “Cyclic urea derivatives, pharmaceutical compositions containing these compounds and methods of using the same” (Dr. Karl Thomae GmbH, priority 1991, dated 1994).
pEC50, pIC50: −log10 of the molar value. Where a name gives a salt, the structure may show the parent alone.

What was measured:
[1] = test system: thrombocyte aggregation in platelet-rich plasma; assay: Antithrombotic effect: collagen-induced thrombocyte aggregation in platelet-rich plasma (Born and Cross); format: cell-based; conditions: human platelet-rich plasma, 10 minutes preincubation at 37° C., read-out: Inhibition of platelet aggregation EC50
Protocol: 2. Antithrombotic Effect Method: The thrombocyte aggregation was measured in platelet-rich plasma from healthy test subjects using the Born and Cross method (J. Physiol. 170: 397 (1964)). In order to inhibit coaggulation the blood was mixed with 3.14% sodium citrate in a ratio by volume of 1:10. Collagen-induced aggregation: The decrease in the optical density of the platelet suspension was measured photometrically and recorded after the addition of the aggregation-initiating substance. The speed of aggregation was concluded from the angle of inclination of the density curve. The point on the curve at which there was maximum transmittance was used to calculate the optical density. The quantity of collagen used was as little as possible but sufficient to give an irreversible reaction curve. Standard commercial collagen produced by Hormonchemie of Munich was used. Before the addition of collagen the plasma was incubated with the substance for 10 minutes at 37° C. From the measurements obtained, an EC50 was determined graphically, relating to a 50% change in the optical density in terms of inhibiting aggregation.

Human Thrombocytes = assay: Fibrinogen Binding to Human Thrombocytes (I125-fibrinogen, gel-filtered platelets); conditions: inhibition of I125-fibrinogen binding to gel-filtered human platelets, ADP, 20 minutes, ambient temperature; read-out: Fibrinogen Binding test IC50
Protocol: 1. Fibrinogen Binding to Human Thrombocytes Blood obtained by puncture of an antecubital vein was anticoagulated with trisodium citrate (final concentration: 13 mM) and centrifuged for 10 minutes at 170 *g. The supernatant platelet-rich plasma was placed on a Sepharose 2B column (Pharmacia) and eluted with a solution of 90 mM common salt, 14 mM trisodium citrate, 5 mM glucose and 50 mM tris(hydroxymethyl)aminomethane, adjusted to pH 7.4. The gel-filtered platelets (GFP) appearing in front of the plasma proteins were used for the binding tests. 50 μl of a 60 mM calcium chloride solution, 50 μl of a 0.6 mM adenosine diphosphate solution, 100 μl of substance solution or solvent and 50 μl of fibrinogen solution (containing 3 μg I125-fibrinogen) were added to 750 μl of GFP and incubated for 20 minutes at ambient temperature. The non-specific binding was measured in the presence of 3 mg/ml of cold fibrinogen. 900 μl of the incubate were carefully pipetted onto 250 μl of silicon oil (AP 38: AR 20, 1:2 v/v, Wacker Chemie) in Eppendorf vessels and centrifuged for 2 minutes at 10,000 *g. The aqueous supernatant and some of the oil were removed, the tip of the vessel with the platelet pellet was cut off and the quantity of bound fibrinogen was measured in a gamma-counter. The concentration of substance which inhibited fibrinogen binding by 50% was calculated from a series of concentrations and given as the IC50.

SMILES | pEC50 [1] | pIC50 (Human Thrombocytes)
N=C(N)c1ccc(-c2ccc(-c3cn(CCC(=O)O)c(=O)n3-c3ccccc3)cc2)cc1 [1(119), 4-(4'-amidino-4-biphenylyl)-1-(2-Carboxy-ethyl)-3-phenyl-3H-imidazol-2-onehydrochloride] | 6.14 | 6.68
CCc1nn(-c2ccc(C(=N)N)cc2)c(=O)n1-c1ccc(CCC(=O)O)cc1 [1(140), 2-(4-amidino-phenyl)-4-[4-(2-carboxy-ethyl)-phenyl]-5-ethyl-4H-1,2,4-triazol-3-one] | 7.52 | 7.68
NCc1ccc(N2CCN(c3ccc(OCC(=O)O)cc3)C2=O)cc1 [1(141), 1-(4-aminomethyl-phenyl)-3-(4-carboxymethyloxyphenyl)-imidazolidin-2-one] | 6.20 | 6.51
N=C(N)c1ccc(-c2ccc(-n3c(=O)n(CCC(=O)O)c4cccnc43)cc2)cc1 [1(143), 3-(4'-amidino-4-biphenylyl)-1-(2-carboxy-ethyl)-3H-imidazo[4,5-b]pyridin-2-one] | 4.66 | < 5.00
N=C(N)c1ccc(-n2ccn(-c3ccc(C=CC(=O)O)cc3)c2=O)cc1 [1(147), 1-(4-amidino-phenyl)-3-[4-(2-carboxy-ethenyl)-phenyl]-3H-imidazol-2-one] | 6.80 | 7.57
N=C(N)c1ccc(-n2ccn(-c3ccc(CC(N)C(=O)O)cc3)c2=O)cc1 (centres unmarked) [1(148), 1-(4-amidino-phenyl)-3-[4-(2-amino-2-carboxy-ethyl)-phenyl]-3H-imidazol-2-one] | 6.96 | 7.60
NCc1ccc(N2CCN(c3ccc(CC(N)C(=O)O)cc3)C2=O)cc1 (centres unmarked) [1(149), 1-[4-(2-amino-2-carboxy-ethyl)-phenyl]-3-(4-aminomethyl-phenyl)-imidazolidin-2-one] | 5.89 | 6.33
N=C(N)c1ccc(-n2ccn(-c3ccc(CC(C(=O)O)N(Cc4ccccc4)Cc4ccccc4)cc3)c2=O)cc1 (centres unmarked) [1(150), 1-(4-amidino-phenyl)-3-[4-(2-carboxy-2-dibenzylamino-ethyl)-phenyl]-3H-imidazol-2-one] | 5.00 | 6.43
CC(N)c1ccc(N2CCN(c3ccc(CCC(=O)O)cc3)C2=O)cc1 (centres unmarked) [1(153), 1-[4-(1-amino-ethyl)-phenyl]-3-[4-(2-carboxy-ethyl)-phenyl]-imidazolidin-2-one] | 6.42 | 6.82
NC1CCc2cc(N3CCN(c4ccc(CCC(=O)O)cc4)C3=O)ccc21 (centres unmarked) [1(154), 1-(1-amino-5-indanyl)-3-[4-(2-carboxy-ethyl)-phenyl] -imidazolidin-2-one] | 6.51 | 7.55
Cc1cc(CN)ccc1N1CCN(c2ccc(CCC(=O)O)cc2)C1=O [1(156), 1-(4-aminomethyl-2-methyl-phenyl)-3-[4-(2-carboxy-ethyl)-phenyl]-imidazolidin-2-one] | 5.39 | 5.44
CCOC(=O)CCN1C(=O)CN(c2ccc(-c3ccc(C(=N)N)cc3)cc2)C1=O [2(2), 1-(4'-amidino-4-biphenylyl)-3-(2-ethoxycarbonyl-ethyl)-imidazolidin-2,4-dione hydrochloride] | 6.20 | 4.60
CCOC(=O)CCN1CCCN(c2ccc(-c3ccc(C(=N)N)cc3)cc2)C1=O [2(4), 1-(4'-amidino-4-biphenylyl)-3-(2-ethoxycarbonyl-ethyl)-3,4,5,6-tetrahydro-1H-pyrimidin-2-one hydrochloride] | 4.38 | 4.82
COC(=O)CN1CCCN(c2ccc(-c3ccc(C(=N)N)cc3)cc2)C1=O [2(5), 1-(4'-amidino-4-biphenylyl)-3-methoxycarbonylmethyl-3,4,5,6-tetrahydro-1H-pyrimidin-2-one hydrochloride] | 4.60 | 5.25
COC(=O)CCN1CCN(c2ccc(-c3ccc(C(=N)N)cc3)cc2)S1(=O)=O [2(20), 2-(4'-amidino-4-biphenylyl)-5-(2-methoxycarbonyl-ethyl)-3,4-dihydro-2H,5H-1,2,5-thiadiazole-1,1-dioxide hydrochloride] | 6.16 | 5.24
COC(=O)CCN1CCN(c2ccc(-c3ccc(C(=N)N)cc3)nn2)C1=O [2(27), 1-[6-(4-amidino-phenyl)-3-pyridazinyl]-3-(2-methoxycarbonyl-ethyl)-imidazolidin-2-one hydrochloride] | 6.31 | 5.60
COC(=O)CCC1CCC(N2CCN(c3ccc(C(=N)N)cc3)C2=O)CC1 (centres unmarked) [2(43), 1-(4-amidino-phenyl)-3-[4-(2-methoxycarbonyl-ethyl)-cyclohexyl]-imidazolidin-2-one hydrochloride] | 7.00 | 6.38
COC(=O)CC(C)(C)c1ccc(N2CCN(c3ccc(C(=N)N)cc3)C2=O)cc1 [2(47), 1-(4-amidino-phenyl)-3-[4-(3-methoxycarbonyl-2-methyl-2-propyl)-phenyl]-imidazolidin-2-one hydrochloride] | < 4.00 | 4.49
COC(=O)CCCCN1CCN(c2ccc(C(=N)N)cc2)C1=O [2(71), 1-(4-amidino-phenyl)-3-(4-methoxycarbonyl-butyl)-imidazolidin-2-one hydrochloride] | 4.85 | 4.89
COC(=O)CNCCN1CCN(c2ccc(C(=N)N)cc2)C1=O [2(75), 1-(4-amidino-phenyl)-3-(2-methoxycarbonylmethylamino-ethyl)-imidazolidin-2-one hydrochloride-acetate] | 4.57 | 5.10

Continued, values first:

pEC50 [1] | pIC50 (Human Thrombocytes) | SMILES
6.34 | 6.77 | Cn1c(-c2ccc(-c3ccc(C(=N)N)cc3)cc2)cn(CCC(=O)O)c1=O [1(118), 4-(4'-amidino-4-biphenylyl)-1-(2-carboxy-ethyl)-3-methyl-3H-imidazol-2-onehydrochloride]
7.30 | 8.11 | N=C(N)c1ccc(-n2ncn(-c3ccc(CCC(=O)O)cc3)c2=O)cc1 [1(145), 2-(4-amidino-phenyl)-4-[4-(2-carboxy-ethyl)-phenyl]-4H-1,2,4-triazol-3-one]
7.30 | 8.19 | N=C(N)c1ccc(-n2cnn(-c3ccc(CCC(=O)O)cc3)c2=O)cc1 [1(146), 4-(4-amidino-phenyl)-2-[4-(2-carboxy-ethyl)-phenyl]-4H-1,2,4-triazol-3-one]
5.51 | 4.74 | CCOC(=O)CCn1ccn(-c2ccc(-c3ccc(C(=N)N)cc3)cc2)c1=O [2(3), 1-(4'-amidino-4-biphenylyl)-3-(2-ethoxycarbonyl-ethyl)-3H-imidazol-2-one h ydrochloride]
6.80 | 6.62 | COC(=O)CCc1ccc(N2CCN(c3ccc(C(=N)N)cc3)C2=O)cc1 [2(6), 1-(4-amidino-phenyl)-3-[4-(2-methoxycarbonyl-ethyl)-phenyl]-imidazolidin-2-one hydrochloride]
6.46 | 5.13 | COC(=O)CCc1ccc(N2CCN(c3ccc(C(=N)N)cc3C)C2=O)cc1 [2(34), 1-(4-amidino-2-methyl-phenyl)-3-[4-(2-methoxycarbonyl-ethyl)-phenyl]-imidazolidin-2-one hydrochloride]
< 4.00 | 4.66 | COC(=O)c1ccc(CCN2CCN(c3ccc(C(=N)N)cc3)C2=O)cc1 [2(48), 1-(4-amidino-phenyl)-3-[2-(4-methoxycarbonyl-phenyl)-ethyl]-imidazolidin-2-one]
6.70 | 5.35 | COC(=O)CCc1ccc(N2C(=O)CN(c3ccc(C(=N)N)cc3)C2=O)cc1 [2(53), 1-(4-amidino-phenyl)-3-[4-(2-methoxycarbonyl-ethyl)-phenyl]-imidazolidin-2,4-dione hydrochloride]
6.49 | 6.19 | COC(=O)CCc1ccc(N2CCN(c3ccc(C(=N)N)cc3)S2(=O)=O)cc1 [2(57), 2-(4-amidino-phenyl)-5-[4-(2-methoxycarbonyl-ethyl)-phenyl]-3,4-dihydro-2H,5H-1,2,5-thiadiazole-1,1-dioxide hydrochloride]
6.85 | 5.33 | COC(=O)CCc1ccc(-n2ccn(-c3ccc(C(=N)N)cc3)c2=O)cc1 [2(58), 1-(4-amidino-phenyl)-3-[4-(2-methoxycarbonyl-ethyl)-phenyl]-3H-imidazol-2-one hydrochloride]
5.82 | 4.72 | COC(=O)CCc1ccc(-n2cc(-c3ccc(C(=N)N)cc3)n(C)c2=O)cc1 [2(81), 4-(4-amidino-phenyl)-1-[4-(2-methoxycarbonyl-ethyl)-phenyl]-3-methyl-3H-imidazol-2-one hydrochloride]
